# From PubChem BioAssay (NCI)
#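 Step 1: Grow cells in 96-well plates. Step 2: Expose to compound for 48 hours at 5 concentrations. Step 3: Interpolate endpoints linearly; if unreached, use highest concentration. Abbreviation: GI50, concentration required for 50% inhibition of growth. At the TGI there is no net growth.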
# Experiments:
# Experiment in all cases: NCI tumour cell line growth inhibition, 48 h
# [1] = tested on: TK-10 renal
# [2] = tested on: HCT-116 colon
# [3] = tested on: OVCAR-8 ovarian
# [4] = tested on: SF-295 CNS
# [5] = tested on: SNB-75 CNS
# [6] = tested on: OVCAR-5 ovarian
# [7] = tested on: SN12C renal
# [8] = tested on: BT-549 breast
# [9] = tested on: HT29 colon
# [10] = tested on: RXF 393 renal
# [11] = tested on: IGROV1 ovarian
# [12] = tested on: KM12 colon
# [13] = tested on: NCI/ADR-RES ovarian
# [14] = tested on: RPMI-8226 leukemia
# [15] = tested on: A498 renal
# [16] = tested on: NCI-H522 lung
# [17] = tested on: MDA-MB-435
# [18] = tested on: SK-MEL-2 melanoma
# [19] = tested on: U251 CNS
# [20] = tested on: SF-268 CNS
# [21] = tested on: HOP-92 NSCLC
# [22] = tested on: SW-620 colon
# [23] = tested on: CCRF-CEM leukemia
# [24] = tested on: MALME-3M melanoma
# [25] = tested on: UACC-257 melanoma
# [26] = tested on: MCF7 breast
# [27] = tested on: ACHN renal
# [28] = tested on: SF-539 CNS
# [29] = tested on: OVCAR-4 ovarian
# [30] = tested on: UO-31 renal
# [31] = tested on: COLO 205 colon
# [32] = tested on: MDA-MB-231 breast
# [33] = tested on: DU-145 prostate
# [34] = tested on: HCT-15 colon
# [35] = tested on: HL-60(TB) leukemia
# [36] = tested on: SK-MEL-5 melanoma
# [37] = tested on: PC-3 prostate
# [38] = tested on: K-562 leukemia
# [39] = tested on: NCI-H23 lung
# [40] = tested on: CAKI-1 renal
# [41] = tested on: 786-0 renal
# [42] = tested on: NCI-H226 lung
# [43] = tested on: HCC-2998 colon
# [44] = tested on: UACC-62 melanoma
# [45] = tested on: MOLT-4 leukemia
# [46] = tested on: SK-MEL-28 melanoma
# [47] = tested on: OVCAR-3 ovarian
# [48] = tested on: SNB-19 CNS
# [49] = tested on: A549 NSCLC
# [50] = tested on: T-47D breast
# [51] = tested on: M14 melanoma
# [52] = tested on: NCI-H460 lung
# [53] = tested on: MDA-N
# [54] = tested on: SR leukemia
# [55] = tested on: EKVX NSCLC
# [56] = tested on: HOP-62 NSCLC
# [57] = tested on: HS 578T breast
# [58] = tested on: LOX IMVI melanoma
# [59] = tested on: SK-OV-3 ovarian
smiles,measurement,setting,value
O=c1c2cc(Br)ccc2oc2ccc(Br)cc12,TGI,[1],> 100 µM
same,TGI,[2],> 100 µM
same,TGI,[3],> 100 µM
same,TGI,[4],> 100 µM
same,TGI,[5],> 100 µM
same,TGI,[6],> 100 µM
same,TGI,[7],> 100 µM
same,TGI,[8],> 100 µM
same,TGI,[9],> 100 µM
same,TGI,[10],> 100 µM
same,TGI,[11],> 100 µM
same,TGI,[12],> 100 µM
same,TGI,[13],> 100 µM
same,TGI,[14],> 100 µM
same,TGI,[15],> 100 µM
same,TGI,[16],> 100 µM
same,TGI,[17],> 100 µM
same,TGI,[18],> 100 µM
same,TGI,[19],> 100 µM
same,TGI,[20],> 100 µM
same,TGI,[21],> 100 µM
same,TGI,[22],> 100 µM
same,TGI,[23],> 100 µM
same,TGI,[24],> 100 µM
same,TGI,[25],> 100 µM
same,TGI,[26],> 100 µM
same,TGI,[27],> 100 µM
same,TGI,[28],> 100 µM
same,TGI,[29],> 100 µM
same,TGI,[30],> 100 µM
same,TGI,[31],> 100 µM
same,TGI,[32],> 100 µM
same,TGI,[33],> 100 µM
same,TGI,[34],> 100 µM
same,TGI,[35],> 100 µM
same,TGI,[36],> 100 µM
same,TGI,[37],> 100 µM
same,TGI,[38],> 100 µM
same,TGI,[39],> 100 µM
same,TGI,[40],> 100 µM
same,TGI,[41],> 100 µM
same,TGI,[42],> 100 µM
same,TGI,[43],> 100 µM
same,TGI,[44],> 100 µM
same,TGI,[45],> 100 µM
same,TGI,[46],> 100 µM
same,TGI,[47],> 100 µM
same,TGI,[48],> 100 µM
same,TGI,[49],> 100 µM
same,TGI,[50],> 100 µM
same,TGI,[51],> 100 µM
same,TGI,[52],> 100 µM
same,TGI,[53],> 100 µM
COc1ccc(NS(=O)CCc2ccccc2)cc1 (stereo not drawn),TGI,[1],> 100 µM
same,TGI,[2],> 100 µM
same,TGI,[3],> 100 µM
same,TGI,[54],> 100 µM
same,TGI,[4],> 100 µM
same,TGI,[5],> 100 µM
same,TGI,[6],> 100 µM
same,TGI,[55],> 100 µM
same,TGI,[7],> 100 µM
same,TGI,[9],> 100 µM
same,TGI,[10],> 100 µM
same,TGI,[56],> 100 µM
same,TGI,[11],> 100 µM
same,TGI,[57],> 100 µM
same,TGI,[12],> 100 µM
same,TGI,[13],> 100 µM
same,TGI,[14],> 100 µM
same,TGI,[16],> 100 µM
same,TGI,[17],> 100 µM
same,TGI,[19],> 100 µM
same,TGI,[20],> 100 µM
same,TGI,[22],> 100 µM
same,TGI,[23],> 100 µM
same,TGI,[24],> 100 µM
same,TGI,[25],> 100 µM
same,TGI,[26],> 100 µM
same,TGI,[27],> 100 µM
same,TGI,[28],> 100 µM
same,TGI,[30],> 100 µM
same,TGI,[58],> 100 µM
same,TGI,[31],> 100 µM
same,TGI,[32],> 100 µM
same,TGI,[33],> 100 µM
same,TGI,[34],> 100 µM
same,TGI,[35],> 100 µM
same,TGI,[36],> 100 µM
same,TGI,[38],> 100 µM
same,TGI,[39],> 100 µM
same,TGI,[40],> 100 µM
same,TGI,[41],> 100 µM
same,TGI,[42],> 100 µM
same,TGI,[43],> 100 µM
same,TGI,[45],> 100 µM
same,TGI,[46],> 100 µM
same,TGI,[47],> 100 µM
same,TGI,[48],> 100 µM
same,TGI,[49],> 100 µM
same,TGI,[51],> 100 µM
same,TGI,[52],> 100 µM
same,TGI,[53],> 100 µM
Cc1cccc2c3c(sc12)C(c1ccc(Cl)cc1)C(C#N)=C(/N=C/c1ccc(Cl)cc1)O3 (stereo not drawn),GI50,[1],12.2 µM
same,TGI,[1],51.3 µM
same,GI50,[2],0.402 µM
same,TGI,[2],> 100 µM
same,GI50,[3],0.46 µM
same,TGI,[3],> 100 µM
same,GI50,[54],0.36 µM
same,TGI,[54],> 34.9 µM
same,GI50,[4],0.267 µM
same,TGI,[4],2.37 µM
same,GI50,[5],0.186 µM
same,TGI,[5],0.748 µM
same,GI50,[6],0.558 µM
same,TGI,[6],> 100 µM
same,GI50,[55],0.565 µM
same,TGI,[55],> 100 µM
same,GI50,[7],0.623 µM
same,TGI,[7],> 100 µM
same,GI50,[8],1.38 µM
same,TGI,[8],> 57.9 µM
same,GI50,[9],0.388 µM
same,TGI,[9],> 52 µM
same,GI50,[10],0.24 µM
same,TGI,[10],0.776 µM
same,GI50,[56],0.573 µM
same,TGI,[56],36.5 µM
same,GI50,[59],3.62 µM
same,TGI,[59],40 µM
same,GI50,[11],0.413 µM
same,TGI,[11],> 100 µM
same,GI50,[57],0.258 µM
same,TGI,[57],2.64 µM
same,GI50,[12],0.448 µM
same,TGI,[12],> 100 µM
same,GI50,[13],0.307 µM
same,TGI,[13],4.27 µM
same,GI50,[14],0.408 µM
same,TGI,[14],> 28.3 µM
same,GI50,[15],0.0748 µM
same,TGI,[15],0.953 µM
same,GI50,[16],0.304 µM
same,TGI,[16],3.12 µM
same,GI50,[17],0.172 µM
same,TGI,[17],0.407 µM
same,GI50,[18],2.86 µM
same,TGI,[18],29.9 µM
same,GI50,[19],0.443 µM
same,TGI,[19],21.3 µM
same,GI50,[20],1.93 µM
same,TGI,[20],46.2 µM
same,GI50,[21],6.04 µM
same,TGI,[21],36.7 µM
same,GI50,[22],0.434 µM
same,TGI,[22],> 100 µM
same,GI50,[23],0.381 µM
same,TGI,[23],> 63.7 µM
same,GI50,[24],0.595 µM
same,TGI,[24],> 100 µM
same,GI50,[25],> 100 µM
same,TGI,[25],> 100 µM
same,GI50,[26],0.301 µM
same,TGI,[26],> 100 µM
same,GI50,[27],0.858 µM
same,TGI,[27],> 100 µM
same,GI50,[28],0.298 µM
same,TGI,[28],1.26 µM
same,GI50,[29],2.17 µM
same,TGI,[29],> 100 µM
same,GI50,[30],0.653 µM
same,TGI,[30],> 100 µM
same,GI50,[58],0.651 µM
same,TGI,[58],> 100 µM
same,GI50,[31],0.456 µM
same,GI50,[32],0.754 µM
same,TGI,[32],20.6 µM
same,GI50,[33],0.485 µM
same,TGI,[33],> 100 µM
same,GI50,[34],0.392 µM
same,TGI,[34],> 100 µM
same,GI50,[35],0.325 µM
same,TGI,[35],2.54 µM
same,GI50,[36],0.47 µM
same,TGI,[36],> 100 µM
same,GI50,[37],0.392 µM
same,TGI,[37],> 100 µM
same,GI50,[38],0.281 µM
same,TGI,[38],> 46.5 µM
same,GI50,[39],0.446 µM
same,TGI,[39],14.2 µM
same,GI50,[40],0.265 µM
same,TGI,[40],20.7 µM
same,GI50,[41],0.653 µM
same,TGI,[41],27.8 µM
same,GI50,[42],0.75 µM
same,TGI,[42],> 19.7 µM
same,GI50,[43],1.04 µM
same,TGI,[43],11.2 µM
same,GI50,[44],0.337 µM
same,TGI,[44],12.7 µM
same,GI50,[45],0.517 µM
same,TGI,[45],> 100 µM
same,GI50,[46],4.73 µM
same,TGI,[46],> 100 µM
same,GI50,[47],0.393 µM
same,TGI,[47],6.81 µM
same,GI50,[48],0.457 µM
same,TGI,[48],24.3 µM
same,GI50,[49],0.489 µM
same,TGI,[49],> 100 µM
same,GI50,[50],0.625 µM
same,TGI,[50],> 100 µM
same,GI50,[51],0.308 µM
same,TGI,[51],> 52.6 µM
same,GI50,[52],0.425 µM
same,TGI,[52],> 100 µM
